Data published in paper PMC6161602, “Synthesis and characterisation of (Z)-styrylbenzene derivatives as potential selective anticancer agents” (Journal of Enzyme Inhibition and Medicinal Chemistry, 2018).
Where two headings read alike, the source gives them in different places.

Legend:
MGC-803 cells = assay: MTT cell growth inhibition assay, MGC-803; type: cell-based, human; conditions: for IC50: MTT, 48 h incubation, MGC-803; for SI IC50 (L-02/MGC-803): selectivity index, IC50 (L-02)/IC50 (MGC-803)
Source text: (§1) All human cell lines were used in this study. MGC-803 late-stage differentiation gastric cancer cell, A549 lung cancer cell, HepG2 hepatoma cell, AGS gastric cancer cell, BEL-7402 liver cancer cell, HCT-116 colorectal cancer cell, HeLa cervical cancer cell, SGC-7901 early differentiation gastric cancer cell, L-02 normal liver cell, MCF-7 breast cancer cell, and MCF-10A normal breast cell were initially purchased from American Type Culture Collection (ATCC, Manassas, VA, USA). RPMI-1640 media, Dulbecco’s modified Eagle’s medium (DMEM), and foetal bovine serum (FBS) were provided from Gibco Company (Grand Island, NY, USA). The cells were maintained in DMEM or RPMI-1640, supplemented with 10% FBS, 100 IU/mL penicillin and […] (Grand Island, NY, USA), and at 37 °C in a humidified atmosphere containing 5% CO2.
(§2) Cells were plated in 96-well plates at a density of 30–40% to ensure exponential growth throughout the experimental period, and then allowed to adhere for 1 day[21]. Next, the cells were treated with four serial concentrations (1, 10, 50, and 100 µM) of each compound. Taxol, CA-4, and CA-4P (phosphorylated form of CA-4) were used as positive controls. After 48 h incubation, MTT solution was added to each well at a final concentration of 2 mg/mL, and incubated for an additional 4 h. Next, the MTT solution was removed and 150 µL of dimethyl sulphoxide (DMSO)/well was added (Sigma-Aldrich, St Louis, MO, USA). The plates were shaken vigorously at RT to ensure complete solubilisation, and absorption at 492 nm was determined.
(§3) According to standard protocol, preliminary in vitro anti-proliferative activities of the synthesised compounds were evaluated by MTT assay, using nine human cancer cell lines (MGC-803, A549, HepG2, AGS, BEL-7402, HCT116, HeLa, SGC-7901, and MCF-7) and two normal human cell lines (L-02 and MCF-10A), and compared with those of CA-4, CA-4P, and taxol.

A549 lung cancer cell = assay: MTT cell growth inhibition assay, A549; type: cell-based, human; conditions: for IC50: MTT, 48 h incubation, A549
Source text: as §1, §2, §3

HepG2 hepatoma cell = assay: MTT cell growth inhibition assay, HepG-2; type: cell-based, human; conditions: MTT, 48 h incubation, HepG-2
Source text: as §1, §2, §3

AGS cells = assay: MTT cell growth inhibition assay, AGS; type: cell-based, human; conditions: for IC50: MTT, 48 h incubation, AGS; for SI IC50 (L-02/AGS): selectivity index, IC50 (L-02)/IC50 (AGS)
Source text: as §1, §2, §3

BEL-7402 cells = assay: MTT cell growth inhibition assay, BEL-7402; type: cell-based, human; conditions: for IC50: MTT, 48 h incubation, Bel-7402; for SI IC50 (L-02/BEL-7402): selectivity index, IC50 (L-02)/IC50 (BEL-7402)
Source text: as §1, §2, §3

HCT116 cells = assay: MTT cell growth inhibition assay, HCT116; type: cell-based, human; conditions: for IC50: MTT, 48 h incubation, HCT116
Source text: as §1, §2, §3

L-02 normal liver cell = assay: MTT cell growth inhibition assay, L-02 (normal); type: cell-based, human; conditions: 48 h incubation, L-02 normal cells
Source text: as §1, §2, §3

[1] = test system: HeLa cervical cancer cell; assay: MTT cell growth inhibition assay, HeLa; type: cell-based, human; conditions: 48 h incubation
Source text: as §1, §2, §3

[2] = test system: SGC-7901 early differentiation gastric cancer cell; assay: MTT cell growth inhibition assay, SGC-7901; type: cell-based, human; conditions: 48 h incubation
Source text: as §1, §2, §3

[3] = test system: MCF-10A normal breast cell; assay: MTT cell growth inhibition assay, MCF-10A (normal); type: cell-based, human; conditions: 48 h incubation, MCF-10A normal cells
Source text: as §1, §2, §3

MCF-7 breast cancer cell = assay: MTT cell growth inhibition assay, MCF-7; type: cell-based, human; conditions: for IC50: MTT, 48 h incubation, MCF-7
Source text: as §1, §2, §3

[4] = selectivity index, IC50 (L-02)/IC50 (HCT116)
[5] = selectivity index, IC50 (MCF-10A)/IC50 (MCF-7)

SMILES | IC50 (MGC-803 cells; Homo sapiens, MGC-803, 48 h) [µM] | IC50 (A549 lung cancer cell; Homo sapiens) [µM] | IC50 (HepG2 hepatoma cell; Homo sapiens, HepG2) [µM] | IC50 (AGS cells; Homo sapiens) [µM] | IC50 (BEL-7402 cells; Homo sapiens) [µM] | IC50 (HCT116 cells; Homo sapiens, HCT-116) [µM] | IC50 (L-02 normal liver cell; Homo sapiens) [µM] | IC50 ([1]; Homo sapiens) [µM] | IC50 ([2]; Homo sapiens) [µM] | IC50 ([3]; Homo sapiens) [µM] | IC50 (MCF-7 breast cancer cell; Homo sapiens, MCF7) [µM] | IC50 (MGC-803 cells) [µM] | SI IC50 (L-02/MGC-803) (MGC-803 cells) | SI IC50 (L-02/HCT116) (HCT116 cells; [4]) | SI IC50 (MCF-10A/MCF-7) (MCF-7 breast cancer cell; [5]) | SI IC50 (L-02/BEL-7402) (BEL-7402 cells) | melting point [°C] | SI IC50 (L-02/AGS) (AGS cells) | also measured
COc1ccc(/C=C\c2cc(OC)c(OC)c(OC)c2)cc1O [CA-4, (Z)-2-methoxy-5–(3,4,5-trimethoxystyryl) phenol, reference compound] | 0.06 ± 0.02 | > 100 | > 100 | 3.42 ± 0.03 | 2.02 ± 0.03 | 0.16 | 1.1 ± 0.03 | > 100 | 0.3 | 3.23 ± 1.21 | 0.22 ± 0.09 |  |  |  |  |  |  |  | SI IC50 (L-02/HCT116) (HCT116 cells): >6.8; SI IC50 (MCF-10A/MCF-7) (MCF-7 breast cancer cell): >14.6
COc1ccc(/C=C\c2cc(OC)c(OC)c(OC)c2)cc1OP(=O)(O)O [CA-4P, reference compound] |  |  |  |  |  |  |  |  |  |  |  | 0.03 ± 0.02 | >89.0 | >4.5 | >30.3 |  |  |  | IC50 (A549 lung cancer cell): > 100 µM; IC50 (HepG2 hepatoma cell): > 100 µM; IC50 (AGS cells): 4.73 ± 0.22 µM; IC50 (BEL-7402 cells): 5.45 ± 2.04 µM; IC50 (HCT116 cells): 0.59 ± 0.22 µM; IC50 (L-02 normal liver cell): 2.67 ± 0.61 µM; IC50 [1]: > 100 µM; IC50 [2]: 0.12 ± 0.03 µM; IC50 [3]: 14.6 ± 1.36 µM; IC50 (MCF-7 breast cancer cell): 0.48 ± 0.25 µM
COc1ccc(/C=C(\C#N)c2cc(OC)c(OC)c(OC)c2)cc1 [Compound 6d, (Z)-3-(4-Methoxyphenyl)-2-(3,4,5-trimethoxyphenyl)acrylonitrile] | 6.18 ± 0.36 | > 100 | > 100 | 0.05 ± 0.003 | 0.75 ± 0.21 | 1.51 ± 0.05 | 4.15 ± 4.16 | > 100 | > 100 | 3.07 ± 0.18 | 16.7 ± 4.77 |  |  | >2.7 |  | >5.5 | 156 to 158 |  | 
COc1cc(/C(C#N)=C/c2ccc(C(C)C)cc2)cc(OC)c1OC [Compound 6f, (Z)-3-(4-Isopropylphenyl)-2-(3,4,5-trimethoxyphenyl)acrylonitrile] | 7.21 ± 3.65 | 36.62 ± 0.134 | > 100 | 1.33 ± 0.15 | 0.72 ± 0.01 | 0.17 ± 0.1 | > 100 | > 100 | > 100 | 5.79 ± 0.48 | 4.37 ± 2.8 |  | >13.8 | >588.2 | >1.3 | >138.8 | 156 to 158 | >75.1 | SI IC50 (L-02/A549) (A549 lung cancer cell; selectivity index, IC50 (L-02)/IC50 (A549)): >2.7
CCc1ccc(/C=C(\C#N)c2cc(OC)c(OC)c(OC)c2)cc1 [Compound 6g, (Z)-3-(4-Ethylphenyl)-2-(3,4,5-trimethoxyphenyl)acrylonitrile] | 0.01 to 7.21 | > 100 | > 100 | 4.38 ± 2.04 | 0.65 ± 0.05 | 0.34 ± 0.01 | > 100 | > 100 | > 100 | 1.19 ± 0.08 | > 100 | < 0.01 |  | >294.1 |  | >153.8 | 76 to 78 | >22.8 | 
COc1cc(/C(C#N)=C/c2cccs2)cc(OC)c1OC [Compound 7a, (Z)-3-(Thiophen-2-yl)-2-(3,4,5-trimethoxyphenyl)acrylonitrile] | 0.67 ± 0.22 | > 100 | > 100 | 8.01 ± 1.65 | 1.82 ± 1.2 | 16.6 ± 10.3 | 21.2 ± 10.8 | > 100 | > 100 | 55.8 ± 10.4 | 15 ± 2 |  |  | >1.2 | >3.7 | >11.6 | 102 to 104 | >2.6 | 
